Key:
PBMC [1] = assay: Induction of IFNalpha release in human PBMC at 20 ug/mL after 48 hrs by ELISA; format: functional
PBMC [2] = assay: Induction of TNFalpha release in human PBMC at 20 ug/mL after 24 hrs by ELISA; format: functional
Human alphaherpesvirus 2 [3] = assay: Antiviral activity against HSV2 in human PBMC assessed as inhibition of viral replication at 20 ug/mL; format: functional
PBMC [4] = assay: Cytotoxicity against human PBMC at 60 ug/mL after 48 hrs by MTT assay; format: cell-based
PBMC [5] = assay: Induction of TNFalpha release in human PBMC at 40 ug/mL after 24 hrs by ELISA; format: functional
PBMC [6] = assay: Induction of TNFalpha release in human PBMC at 20 ug/mL after 48 hrs by ELISA; format: functional
PBMC [7] = assay: Induction of IFNalpha release in human PBMC at 40 ug/mL after 48 hrs by ELISA; format: functional
PBMC [8] = assay: Cytotoxicity against human PBMC at 40 ug/mL after 48 hrs by MTT assay; format: cell-based
Human alphaherpesvirus 2 [9] = assay: Antiviral activity against HSV2 in human PBMC assessed as inhibition of viral replication at 40 ug/mL; format: functional
PBMC [10] = assay: Induction of IFNalpha release in human PBMC at 40 ug/mL after 24 hrs by ELISA; format: functional
PBMC [11] = assay: Cytotoxicity against human PBMC at 20 ug/mL after 48 hrs by MTT assay; format: cell-based
PBMC [12] = assay: Induction of TNFalpha release in human PBMC at 40 ug/mL after 48 hrs by ELISA; format: functional
PBMC [13] = assay: Induction of IFNalpha release in human PBMC at 20 ug/mL after 24 hrs by ELISA; format: functional

| Structure (SMILES) | Activity (PBMC [1]) [pg/mL] | Activity (PBMC [2]) [pg/mL] | PFU/ml (Human alphaherpesvirus 2 [3]) | Activity (PBMC [4]) [%] | Activity (PBMC [5]) [pg/mL] | Activity (PBMC [6]) [pg/mL] | Activity (PBMC [7]) [pg/mL] | Activity (PBMC [8]) [%] | PFU/ml (Human alphaherpesvirus 2 [9]) | Activity (PBMC [10]) [pg/mL] | Activity (PBMC [11]) [%] | Activity (PBMC [12]) [pg/mL] | Activity (PBMC [13]) [pg/mL] |
| --- | --- | --- | --- | --- | --- | --- | --- | --- | --- | --- | --- | --- | --- |
| O=C(NCCOCCO[C@@H]1O[C@H](CO)[C@@H](O)[C@H](O)[C@H]1O)c1ccc2c(c1)C(=O)c1ccccc1-2 | 17 | 9 | 49000 | 6 | 13 | 31 | 31 | 0 | 36000 | 8 | 0 | 39 | <4.8 |
| O=C(NCCOCCO[C@@H]1O[C@H](CO)[C@@H](O[C@H]2O[C@H](CO)[C@@H](O)[C@H](O)[C@H]2O)[C@H](O)[C@H]1O)c1ccc2c(c1)C(=O)c1ccccc1-2 | 10 | <5.8 | 53000 | 18 | <5.8 | 18 | 30 | 0 | 32000 | <4.8 | 0 | 27 | <4.8 |
| O=C(NCCOCCO)c1ccc2c(c1)C(=O)c1ccccc1-2 | 21 | <5.8 | 5300 | 4 | 24 | 17 | 38 | 0 | 3900 | 6 | 0 | 48 | <4.8 |
| O=C(OCCO)c1cccc2c1-c1ccccc1C2=O | 16 | <5.8 | 58000 | 14 | – | 21 | – | 6 | – | – | 0 | – | <4.8 |
| O=C(OCCCCO[C@H]1O[C@H](CO)[C@@H](O)[C@H](O)[C@H]1O)c1cccc2c1-c1ccccc1C2=O | – | – | – | 57 | – | – | – | 38 | – | – | 22 | – | – |
| O=C(OCCCCO[C@@H]1O[C@H](CO)[C@@H](O[C@H]2O[C@H](CO)[C@@H](O)[C@H](O)[C@H]2O)[C@H](O)[C@H]1O)c1cccc2c1-c1ccccc1C2=O | – | – | – | 69 | – | – | – | 37 | – | – | 26 | – | – |
| O=C(OCCCCO[C@H]1O[C@H](CO[C@H]2O[C@H](CO[C@H]3O[C@H](CO)[C@@H](O)[C@H](O)[C@H]3O)[C@@H](O)[C@H](O)[C@H]2O)[C@@H](O)[C@H](O)[C@H]1O)c1cccc2c1-c1ccccc1C2=O | 14 | <5.8 | 70000 | 42 | – | 9 | – | 19 | – | – | 0 | – | <4.8 |
| O=C(NCCOCCOC1O[C@H](COC2O[C@H](CO)[C@@H](O)[C@H](O)[C@H]2O)[C@@H](O)[C@H](O)[C@H]1O)c1ccc2c(c1)C(=O)c1ccccc1-2 (single isomer, unassigned) | 14 | <5.8 | 42000 | 21 | <5.8 | 16 | 25 | 0 | 35000 | <4.8 | 0 | 21 | <4.8 |
| O=C(OCCCO)c1cccc2c1-c1ccccc1C2=O | 8 | <5.8 | 60000 | 41 | – | 11 | – | 22 | – | – | 0 | – | <4.8 |
| CC(O)CNC(=O)c1ccc2c(c1)C(=O)c1ccccc1-2 (stereo unspecified) | 18 | <5.8 | 6000 | 5 | 14 | 20 | 45 | 0 | 3500 | 21 | 0 | 33 | <4.8 |
| O=C(OCCCCO[C@@H]1O[C@H](CO)[C@@H](O)[C@H](O)[C@H]1O)c1cccc2c1-c1ccccc1C2=O | 10 | <5.8 | 78000 | 7 | <5.8 | 18 | 29 | 0 | 36000 | <4.8 | 0 | 30 | <4.8 |
| O=C(NCCO)c1ccc2c(c1)C(=O)c1ccccc1-2 | 11 | <5.8 | 48000 | 2 | 14 | 13 | 29 | 0 | 37000 | 9 | 0 | 36 | <4.8 |
| O=C(OCCCCO[C@@H]1O[C@H](CO[C@H]2O[C@H](CO)[C@@H](O)[C@H](O)[C@H]2O)[C@@H](O)[C@H](O)[C@H]1O)c1cccc2c1-c1ccccc1C2=O | 9 | <5.8 | 68000 | 52 | – | 15 | – | 29 | – | – | 0 | – | <4.8 |
| O=C(NCCOCCO[C@H]1O[C@H](CO)[C@@H](O)[C@H](O)[C@H]1O)c1ccc2c(c1)C(=O)c1ccccc1-2 | 17 | <5.8 | 60000 | 16 | <5.8 | 14 | 31 | 0 | 34000 | <4.8 | 0 | 30 | <4.8 |
| O=C(NCCCO)c1ccc2c(c1)C(=O)c1ccccc1-2 | 7 | <5.8 | 6500 | 15 | 27 | 40 | 37 | 0 | 4100 | 13 | 0 | 51 | <4.8 |
| O=C(NCCCCO)c1ccc2c(c1)C(=O)c1ccccc1-2 | – | – | – | 45 | – | – | – | 28 | – | – | 20 | – | – |
| O=C(OCCCCO)c1cccc2c1-c1ccccc1C2=O | 12 | <5.8 | 71000 | 38 | – | 6 | – | 21 | – | – | 0 | – | <4.8 |

— ChEMBL document CHEMBL1154501, “2/4-Substituted-9-fluorenones and their O-glucosides as potential immunomodulators and anti-herpes simplex virus-2 agents. Part 5” (Eur J Med Chem, 2008)
